Source: BindingDB's records for patent US12331033 (Disarm Therapeutics, 2025)

Target: T1, NAD(+) hydrolase SARM1 (Homo sapiens, UniProt Q6SZW1)
T1 sequence (Q6SZW1 whole entry): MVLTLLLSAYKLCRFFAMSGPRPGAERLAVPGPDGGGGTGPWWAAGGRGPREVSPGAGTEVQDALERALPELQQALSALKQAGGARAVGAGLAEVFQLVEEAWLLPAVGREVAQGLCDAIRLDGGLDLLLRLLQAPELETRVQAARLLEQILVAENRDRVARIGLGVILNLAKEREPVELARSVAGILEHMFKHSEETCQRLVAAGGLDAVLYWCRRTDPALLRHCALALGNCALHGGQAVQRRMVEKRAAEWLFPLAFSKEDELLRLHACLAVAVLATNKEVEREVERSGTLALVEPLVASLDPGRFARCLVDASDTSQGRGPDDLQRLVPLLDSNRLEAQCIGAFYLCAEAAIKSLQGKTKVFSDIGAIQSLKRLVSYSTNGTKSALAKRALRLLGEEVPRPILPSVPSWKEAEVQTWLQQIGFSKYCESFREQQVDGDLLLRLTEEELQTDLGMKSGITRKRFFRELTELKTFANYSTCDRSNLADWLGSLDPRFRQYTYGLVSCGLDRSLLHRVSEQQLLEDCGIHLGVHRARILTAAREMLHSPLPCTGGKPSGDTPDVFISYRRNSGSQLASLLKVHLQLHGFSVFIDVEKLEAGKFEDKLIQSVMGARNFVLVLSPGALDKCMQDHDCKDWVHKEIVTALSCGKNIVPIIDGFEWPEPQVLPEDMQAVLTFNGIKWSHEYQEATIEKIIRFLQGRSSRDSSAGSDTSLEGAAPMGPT
Assay: ARM-SAM-TIR IC50 Assay
Experimental: The enzymatic assay was performed in a 384-well polypropylene plate in Dulbecco's PBS buffer in a final assay volume of 20 μL. ARM-SAM-TIR lysate with a final concentration of 5 μg/mL was pre-incubated with the respective compound at 1% DMSO final assay concentration over 2 h at room temperature. The reaction was initiated by addition of 5 μM final assay concentration of NAD+ as substrate. After a 2 hr room temperature incubation, the reaction was terminated with 40 μL of stop solution of 7.5% trichloroactetic acid in acetonitrile. The NAD+ and ADPR concentrations were analyzed by a RapidFire High Throughput Mass Spectrometry System (Agilent Technologies, Santa Clara, Calif.) using an API4000 triple quadrupole mass spectrometer (AB Sciex Framingham, Mass.).

Q: `Cc1c(-c2ccncc2)n[nH]c1NC(=O)COc1ccc(Cl)c(F)c1` [US12331033, Example 291] was tested. Which IC50 did it give?
A: < 5 µM
